Assay results as given in PMC4906375, “Contribution of Amphipathicity and Hydrophobicity to the Antimicrobial Activity and Cytotoxicity of β-Hairpin Peptides” (ACS Infectious Diseases, 2016).
Converted amounts (≈) assume the structure as drawn.

Assays:
[1] = test system: E. coli ATCC 700926 (K12); assay type: cell-based, Escherichia coli; conditions: E. coli ATCC 700926 (K12); n = 4
Description: (§1) Both antibacterial and antifungal MIC assays were performed by a broth microdilution plate based method as per CLSI guidelines for antimicrobial susceptibility testing.[53],[54] […] Full assay details are included in the Supporting Information with a full list of strains tested in Table S1.
(§2) Antibacterial assay (Minimum Inhibitory Concentration [MIC]).
(§3) MIC assay was performed by a broth microdilution plate based method as per CLSI guidelines for antimicrobial susceptibility testing of aerobic bacteria.1 Compounds were prepared at 1.28 mg/mL solution in water. The tested strains, Table S1, were cultured in Luria broth (LB) (In Vitro Technologies, USB75852), at 37 °C overnight. A sample of culture was then diluted 40Pfold in fresh Muller Hinton broth (MHB) (Bacto laboratories, 211443) and incubated at 37 °C for 1.5P2 h. The compounds were serially diluted twoPfold across the wells, with compound concentrations ranging from 0.015 µg/mL to 512 µg/mL, plated in duplicate. The resultant midPlog phase cultures were diluted to the final concentration of 1×10^6 CFU/mL, then 50 µL was added to each well of the compoundP containing 96Pwell plates (Corning 3641, NonPbinding Surface [NBS]), giving a final compound concentration range of 0.008 µg/mL to 256 µg/mL and 5x10^5 CFU/mL. All the plates were covered and incubated at 37 °C for 18 h. MICs were determined visually, being defined as the lowest concentration showing no visible growth. Resazurin was added at 0.001% final concentration to each well and incubated for 2 h before MICs were rePread for confirmation using the colour change from blue to pink to indicate wells containing viable cells. The resazurin assay was added in some wells where some form of precipitate was present in otherwise clear wells, making it difficult to ascertain which wells had visible […]
(§4) Antifungal assay (Minimum Inhibitory Concentration [MIC]). MIC assay was performed by a broth microdilution plate based method as per CLSI guidelines for antimicrobial susceptibility testing.2 Fungi strains, Table S1, were cultured for 3 days on Yeast ExtractPPeptone Dextrose (YPD) (SigmaPAldrich, Y1500) agar at 30 °C. A yeast suspension of 1x10^6 to 5x10^6 CFU/mL was prepared from five colonies. These stock suspensions were diluted with Yeast Nitrogen Base (YNB) (Becton Dickinson, 233520) broth to a final concentration of 2.5 ×10^3 CFU/mL. All samples, compounds and standards were plated in 96Pwell plates (Corning 3641, NonPbinding Surface [NBS]), by adding 10 µL of 1.28 mg/mL stock solution to each well and 90 µL of media. Then, the samples were serial diluted (1:2) in 12 concentrations across the plate. The standard antifungal ranged from 256

[2] = test system: E. coli ATCC 25922 (control strain); assay type: cell-based, Escherichia coli; conditions: E. coli ATCC 25922 (control strain); n = 4
Description: as §1, §2, §3, §4

E. coli MB 4902 (ΔlpxC) = assay type: cell-based, Escherichia coli; conditions: n = 4
Description: as §1, §2, §3, §4

[3] = test system: K. pneumoniae ATCC 700603 (MDR); assay type: cell-based, Klebsiella pneumoniae; conditions: n = 4
Description: as §1, §2, §3, §4

K. pneumoniae ATCC 13883 = assay type: cell-based, Klebsiella pneumoniae; conditions: K. pneumoniae ATCC 13883; n = 4
Description: as §1, §2, §3, §4

[4] = test system: K. pneumoniae BAA 2146 (NDM-1 pos); assay type: cell-based, Klebsiella pneumoniae; conditions: n = 4
Description: as §1, §2, §3, §4

A. baumannii ATCC 19606 = assay type: cell-based, Acinetobacter baumannii; conditions: A. baumannii ATCC 19606; n = 4
Description: as §1, §2, §3, §4

P. aeruginosa ATCC 27853 = assay type: cell-based, Pseudomonas aeruginosa; conditions: P. aeruginosa ATCC 27853; n = 4
Description: as §1, §2, §3, §4

C. albicans ATCC 90028 = experiment: microbe, parasite or virus in culture; assay type: cell-based, Candida albicans; conditions: Candida albicans, ATCC90028; C. albicans ATCC 90028; n = 4; read-out: MIC
Description: as §1, §2, §3
as §4, with “256 […]” for “256”
(§5) µg/mL to 0.12 µg/mL and compounds from 128 µg/mL to 0.06 µg/mL with final volumes of 50 µL per well, plated in duplicate. Then, 50 µL of the fungi suspension that was previously prepared in YNB broth to the final concentration of 2.5×10^3 CFU/mL, was added to each well of the compoundPcontaining plates, giving a final standard compound concentration range of 128 µg/mL to 0.06 µg/mL and tested compound from 64 µg/mL to 0.03 µg/mL. Plates were covered and incubated at 35 °C for 24 h. Candida albicans MICs were determined by measuring the absorbance at OD530. For Cryptococcus neoformans 10 µL of 0.06 % resazurin were added to the 24 h incubated plates. Then, these plates were incubated for another 3 h.
(§6) Cryptococcus neoformans MICs were determined by measuring the absorbance at OD570P600. […]

[5] = test system: C. neoformans ATCC 208821; experiment: microbe, parasite or virus in culture; assay type: cell-based, Cryptococcus neoformans; conditions: Cryptococcus neoformans, ATCC208821; C. neoformans ATCC 208821; n = 4; read-out: MIC
Description: as §1, §2, §3
as §4, with “256 […]” for “256”
as §5, §6

[6] = test system: S. aureus ATCC 43300 (MRSA); experiment: microbe, parasite or virus in culture; assay type: cell-based, Staphylococcus aureus; conditions: Staphylococcus aureus
Description: as §1, §2, §3, §4

B. subtilis ATCC 6051 = experiment: microbe, parasite or virus in culture; assay type: cell-based, Bacillus subtilis; conditions: Bacillus subtilis, ATCC6051
Description: as §1, §2, §3, §4

colistin [reference compound]
MIC [1]: 0.03 µg/mL
MIC [2]: 0.03 µg/mL
MIC (E. coli MB 4902 (ΔlpxC)): 9 ng/mL
MIC [3]: 0.125 µg/mL
MIC (K. pneumoniae ATCC 13883): 0.5 µg/mL
MIC [4]: 0.03 µg/mL
MIC (A. baumannii ATCC 19606): 0.03 µg/mL
MIC (P. aeruginosa ATCC 27853): 0.25 µg/mL

C[C@@H]1[C@H](O)[C@@H](C)/C=C/C=C/C=C/C=C/C=C/C=C/C=C/[C@H](O[C@@H]2O[C@H](C)[C@@H](O)[C@H](N)[C@@H]2O)C[C@@H]2O[C@](O)(C[C@@H](O)C[C@@H](O)[C@H](O)CC[C@@H](O)C[C@@H](O)CC(=O)O[C@H]1C)C[C@H](O)[C@H]2C(=O)O [amphotericin B, reference compound]
MIC (C. albicans ATCC 90028): 0.06 µg/mL (≈ 0.0649 µM)
MIC [5]: 0.015 µg/mL (≈ 0.0162 µM)

CN[C@H](CC(C)C)C(=O)N[C@H]1C(=O)N[C@@H](CC(N)=O)C(=O)N[C@H]2C(=O)N[C@H]3C(=O)N[C@H](C(=O)N[C@H](C(=O)O)c4cc(O)cc(O)c4-c4cc3ccc4O)[C@H](O)c3ccc(c(Cl)c3)Oc3cc2cc(c3O[C@@H]2O[C@H](CO)[C@@H](O)[C@H](O)[C@H]2O[C@H]2C[C@](C)(N)[C@H](O)[C@H](C)O2)Oc2ccc(cc2Cl)[C@H]1O [vancomycin, reference compound]
MIC [6]: 1 µg/mL (≈ 0.69 µM)
MIC (B. subtilis ATCC 6051): 0.25 µg/mL (≈ 0.173 µM)
